Tested on: Monocytes
Assay: Human primary leucocyte viability: monocytes
Format: cell-based
Conditions: 3 μM, 48 hours
Experimental: The effects of the reference compound (ABD735) on the viability of neutrophils, monocytes, CD4+ and CD8+ T-cells and B-lymphocytes was assessed under both resting and stimulated conditions. Resting conditions were used to assess likely effects on normal cells found in human blood, and stimulated conditions were used to assess the effects of the compound under disease conditions.
Effects on cell viability were assessed using flow cytometry. Flow cytometry is a laser-based, biophysical technology employed in cell counting, cell sorting, and biomarker detection, by suspending cells in a stream of fluid and passing them by an electronic detection apparatus. It allows simultaneous multi-parametric analysis of the physical and chemical characteristics of up to thousands of particles per second. The sorting of cells using flow cytometry requires the use of specific cell markers. To quantify cell numbers, counting beads are used as an internal standard. Counting beads are a calibrated suspension of microbeads which are added to a known volume of sample so the sample volume per bead is known. This allows the absolute determination of cell number in a sample. In addition, for B- and T-lymphocytes, cell proliferation was measured using a dye known as Cell Proliferation Dye (eFluor® 450). eFluor® 450 is an organic dye which can be conjugated to cell-specific markers. It fluoresces when excited by a laser in a manner proportional to the number of cells bound by the conjugate. Its signal therefore provides an indication of the proliferation of specific cell types.
PBMCs (peripheral blood mononuclear cells) were collected from healthy donors (all male) and isolated by centrifugation on a layer of Ficoll Paque (GE Healthcare, UK). Cells were then resuspended (3×10^6 cells/mL) in RPMI supplemented with 10% FCS and antibiotics (penicillin 100 U/mL, streptomycin 100 μg/mL) and 1 mL of cell suspension was added to a 48-well plate, which was then incubated for 1 hour at 37° C./5% CO2. Subsequently, the supernatant was aspirated to remove non-adherent cells, which was followed by two washing steps to ensure removal of non-adhered cells. Adhered cells (monocytes) were then stimulated with either LPS (10 ng/mL), TNFα (10 ng/mL) or macrophage colony stimulating factor (M-CSF) (10 ng/mL) in the absence (control) or presence of reference compound (ABD735) (at 30, 10, 3, 1, or 0.3 μM) for 48 hours at 37° C./5% CO2. Subsequently, the plates were centrifuged and the monocytes washed in PBS before addition of PBS plus EDTA (10 mM) and incubation at 4° C. for 20 minutes to help detach the cells, which was facilitated by pipetting. […]
The average results (n=3) for the reference compound (ABD735) were expressed as a fold change versus the average control value. […]

Cc1cc(S(=O)(=O)N[C@H]2CC[C@H](O)CC2)ccc1-c1ccc(F)cc1F [ABD735]
Fold change in viability (LPS): 1.0
Fold change in viability (M-CSF): 1.1
Fold change in viability (TNFα): 0.5
Fold change in viability (no stimulation): 0.7
